# Measured values reported in publication PMC6437697 (Journal of Medicinal Chemistry, 2019).
# How the values were obtained:
# Assay in all cases: KINOMEscan
# Type in all cases: binding
# EGFR = biological target: T1, EGFR (Homo sapiens, UniProt P00533); details: read-out: % control activity remaining
# T1 construct: purchased Eurofins DiscoverX KINOMEscan
# SRPK2 = biological target: T2, SRPK2 (Homo sapiens, UniProt P78362); details: read-out: % control activity remaining
# T2 construct: purchased Eurofins DiscoverX KINOMEscan
# PIK3CA(E545K) = biological target: T3, PIK3CA(E545K) (Homo sapiens, UniProt P42336, E545K); details: read-out: % control activity remaining
# T3 construct: purchased Eurofins DiscoverX KINOMEscan
# MLCK = biological target: T4, MLCK (Homo sapiens, UniProt Q32MK0); details: for remaining binding at 1 µM: read-out: % control activity remaining
# T4 construct: purchased Eurofins DiscoverX KINOMEscan
# T4 sequence (Q32MK0 1-819): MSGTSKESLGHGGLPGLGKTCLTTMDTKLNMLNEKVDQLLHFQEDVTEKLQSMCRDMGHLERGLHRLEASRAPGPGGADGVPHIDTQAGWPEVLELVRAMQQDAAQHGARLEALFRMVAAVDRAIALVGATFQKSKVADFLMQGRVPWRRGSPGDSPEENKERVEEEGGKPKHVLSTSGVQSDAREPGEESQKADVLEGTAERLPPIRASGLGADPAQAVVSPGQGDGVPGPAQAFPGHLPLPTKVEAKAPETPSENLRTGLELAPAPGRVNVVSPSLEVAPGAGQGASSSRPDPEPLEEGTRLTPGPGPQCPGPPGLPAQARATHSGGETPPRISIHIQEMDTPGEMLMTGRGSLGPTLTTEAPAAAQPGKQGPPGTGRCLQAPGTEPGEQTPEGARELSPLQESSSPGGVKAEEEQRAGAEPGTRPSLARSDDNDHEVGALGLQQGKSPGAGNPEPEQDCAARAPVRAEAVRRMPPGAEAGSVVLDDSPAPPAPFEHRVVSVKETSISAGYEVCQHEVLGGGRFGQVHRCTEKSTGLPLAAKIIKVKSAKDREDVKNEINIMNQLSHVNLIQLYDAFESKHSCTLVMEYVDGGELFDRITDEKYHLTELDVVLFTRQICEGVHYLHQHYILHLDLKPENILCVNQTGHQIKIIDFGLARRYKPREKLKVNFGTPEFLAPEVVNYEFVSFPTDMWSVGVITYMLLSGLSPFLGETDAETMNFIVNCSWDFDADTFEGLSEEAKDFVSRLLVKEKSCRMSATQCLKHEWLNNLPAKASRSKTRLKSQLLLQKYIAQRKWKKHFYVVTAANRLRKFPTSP
# PDGFRB = biological target: T5, PDGFRB (Homo sapiens, UniProt P09619); details: for remaining binding at 1 µM: read-out: % control activity remaining
# T5 construct: purchased Eurofins DiscoverX KINOMEscan
# HPK1 = biological target: T6, HPK1 (Homo sapiens, UniProt Q92918); details: read-out: % control activity remaining
# T6 construct: purchased Eurofins DiscoverX KINOMEscan
# PRKG1 = biological target: T7, PRKG1 (Homo sapiens, UniProt Q13976); details: read-out: % control activity remaining
# T7 construct: purchased Eurofins DiscoverX KINOMEscan
# T7 sequence (Q13976 1-671): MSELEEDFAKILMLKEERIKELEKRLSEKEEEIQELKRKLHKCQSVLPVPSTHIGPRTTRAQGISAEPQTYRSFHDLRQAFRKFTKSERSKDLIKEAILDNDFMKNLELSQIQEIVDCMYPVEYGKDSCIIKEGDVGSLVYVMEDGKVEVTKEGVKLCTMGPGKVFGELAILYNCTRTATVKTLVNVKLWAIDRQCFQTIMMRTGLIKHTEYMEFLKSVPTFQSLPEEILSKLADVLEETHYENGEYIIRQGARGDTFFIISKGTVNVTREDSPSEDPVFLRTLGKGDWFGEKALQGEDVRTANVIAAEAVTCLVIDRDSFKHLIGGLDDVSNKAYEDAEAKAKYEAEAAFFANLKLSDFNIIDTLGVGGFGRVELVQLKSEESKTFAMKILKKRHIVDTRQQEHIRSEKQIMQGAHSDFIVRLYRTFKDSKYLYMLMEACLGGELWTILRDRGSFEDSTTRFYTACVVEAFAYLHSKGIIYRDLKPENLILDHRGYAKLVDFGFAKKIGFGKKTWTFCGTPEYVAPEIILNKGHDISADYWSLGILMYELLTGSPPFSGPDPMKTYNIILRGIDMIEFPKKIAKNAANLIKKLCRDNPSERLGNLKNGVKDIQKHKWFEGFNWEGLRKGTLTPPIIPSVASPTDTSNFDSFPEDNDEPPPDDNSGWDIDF
# VEGFR2 = biological target: T8, VEGFR2 (Homo sapiens, UniProt P35968); details: read-out: % control activity remaining
# T8 construct: purchased Eurofins DiscoverX KINOMEscan
# MARK1 = biological target: T9, MARK1 (Homo sapiens, UniProt Q9P0L2); details: read-out: % control activity remaining
# T9 construct: purchased Eurofins DiscoverX KINOMEscan
# TLK1 = biological target: T10, TLK1 (Homo sapiens, UniProt Q9UKI8); details: read-out: % control activity remaining
# T10 construct: purchased Eurofins DiscoverX KINOMEscan
# T10 sequence (Q9UKI8 1-766): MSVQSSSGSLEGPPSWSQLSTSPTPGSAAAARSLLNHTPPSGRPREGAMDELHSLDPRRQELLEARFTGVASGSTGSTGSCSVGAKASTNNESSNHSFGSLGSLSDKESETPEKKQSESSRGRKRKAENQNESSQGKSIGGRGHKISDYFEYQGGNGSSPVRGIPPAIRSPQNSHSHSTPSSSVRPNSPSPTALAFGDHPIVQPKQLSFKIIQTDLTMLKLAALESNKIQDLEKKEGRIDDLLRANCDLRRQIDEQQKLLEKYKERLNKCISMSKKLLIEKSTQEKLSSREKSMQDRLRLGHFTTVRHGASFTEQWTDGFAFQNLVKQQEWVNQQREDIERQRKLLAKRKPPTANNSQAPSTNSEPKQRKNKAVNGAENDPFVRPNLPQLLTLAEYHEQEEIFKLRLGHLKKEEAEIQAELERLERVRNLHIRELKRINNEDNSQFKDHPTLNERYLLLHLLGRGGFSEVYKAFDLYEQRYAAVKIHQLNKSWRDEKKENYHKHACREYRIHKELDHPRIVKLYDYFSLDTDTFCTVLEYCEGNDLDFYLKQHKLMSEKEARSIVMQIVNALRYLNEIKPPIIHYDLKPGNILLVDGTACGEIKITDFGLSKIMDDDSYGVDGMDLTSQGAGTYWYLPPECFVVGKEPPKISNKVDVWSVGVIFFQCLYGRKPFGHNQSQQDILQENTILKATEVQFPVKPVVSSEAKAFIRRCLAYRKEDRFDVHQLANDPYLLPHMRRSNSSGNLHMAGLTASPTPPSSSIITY
# DDR1 = biological target: T11, DDR1 (Homo sapiens, UniProt Q08345); details: read-out: % control activity remaining
# T11 construct: purchased Eurofins DiscoverX KINOMEscan
# LYN = biological target: T12, LYN (Homo sapiens, UniProt P07948); details: read-out: % control activity remaining
# T12 construct: purchased Eurofins DiscoverX KINOMEscan
# [1] = read-out: Probe binding inhibited
# T8 sequence (P35968 20-1356): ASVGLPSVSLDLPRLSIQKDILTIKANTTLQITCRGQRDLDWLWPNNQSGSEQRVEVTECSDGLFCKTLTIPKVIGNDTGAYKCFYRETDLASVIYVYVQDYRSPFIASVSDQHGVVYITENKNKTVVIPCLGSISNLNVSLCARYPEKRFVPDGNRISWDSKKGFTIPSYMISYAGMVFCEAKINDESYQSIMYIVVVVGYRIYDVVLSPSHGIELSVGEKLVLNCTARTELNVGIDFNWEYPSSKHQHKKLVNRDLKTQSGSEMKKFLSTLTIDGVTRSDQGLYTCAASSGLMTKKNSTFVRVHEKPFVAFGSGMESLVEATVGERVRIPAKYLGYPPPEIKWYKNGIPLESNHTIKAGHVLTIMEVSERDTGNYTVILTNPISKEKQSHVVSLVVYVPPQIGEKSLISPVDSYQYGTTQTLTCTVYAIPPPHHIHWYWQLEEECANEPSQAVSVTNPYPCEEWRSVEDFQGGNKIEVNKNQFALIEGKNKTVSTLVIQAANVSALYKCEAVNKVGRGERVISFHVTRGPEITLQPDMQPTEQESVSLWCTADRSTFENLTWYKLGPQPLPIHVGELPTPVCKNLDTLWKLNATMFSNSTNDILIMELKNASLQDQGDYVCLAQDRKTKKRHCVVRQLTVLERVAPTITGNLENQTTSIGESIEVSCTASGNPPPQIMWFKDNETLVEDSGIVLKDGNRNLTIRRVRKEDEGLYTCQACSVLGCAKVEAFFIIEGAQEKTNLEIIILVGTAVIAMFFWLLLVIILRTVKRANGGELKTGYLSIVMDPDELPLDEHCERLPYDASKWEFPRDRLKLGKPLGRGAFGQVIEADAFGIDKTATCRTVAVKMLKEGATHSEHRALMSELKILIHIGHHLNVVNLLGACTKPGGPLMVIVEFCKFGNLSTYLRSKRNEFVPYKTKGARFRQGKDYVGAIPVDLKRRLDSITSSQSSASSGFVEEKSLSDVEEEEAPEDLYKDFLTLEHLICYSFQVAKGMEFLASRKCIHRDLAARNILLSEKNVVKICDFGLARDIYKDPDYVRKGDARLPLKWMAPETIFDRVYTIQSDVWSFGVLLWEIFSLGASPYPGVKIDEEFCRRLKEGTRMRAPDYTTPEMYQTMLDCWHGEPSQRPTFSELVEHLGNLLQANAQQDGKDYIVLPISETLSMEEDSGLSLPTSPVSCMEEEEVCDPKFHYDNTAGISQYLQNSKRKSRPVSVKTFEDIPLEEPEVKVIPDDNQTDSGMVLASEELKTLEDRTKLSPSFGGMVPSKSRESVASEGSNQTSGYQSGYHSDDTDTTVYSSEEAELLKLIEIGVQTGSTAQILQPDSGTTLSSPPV
# T5 sequence (P09619 33-1106): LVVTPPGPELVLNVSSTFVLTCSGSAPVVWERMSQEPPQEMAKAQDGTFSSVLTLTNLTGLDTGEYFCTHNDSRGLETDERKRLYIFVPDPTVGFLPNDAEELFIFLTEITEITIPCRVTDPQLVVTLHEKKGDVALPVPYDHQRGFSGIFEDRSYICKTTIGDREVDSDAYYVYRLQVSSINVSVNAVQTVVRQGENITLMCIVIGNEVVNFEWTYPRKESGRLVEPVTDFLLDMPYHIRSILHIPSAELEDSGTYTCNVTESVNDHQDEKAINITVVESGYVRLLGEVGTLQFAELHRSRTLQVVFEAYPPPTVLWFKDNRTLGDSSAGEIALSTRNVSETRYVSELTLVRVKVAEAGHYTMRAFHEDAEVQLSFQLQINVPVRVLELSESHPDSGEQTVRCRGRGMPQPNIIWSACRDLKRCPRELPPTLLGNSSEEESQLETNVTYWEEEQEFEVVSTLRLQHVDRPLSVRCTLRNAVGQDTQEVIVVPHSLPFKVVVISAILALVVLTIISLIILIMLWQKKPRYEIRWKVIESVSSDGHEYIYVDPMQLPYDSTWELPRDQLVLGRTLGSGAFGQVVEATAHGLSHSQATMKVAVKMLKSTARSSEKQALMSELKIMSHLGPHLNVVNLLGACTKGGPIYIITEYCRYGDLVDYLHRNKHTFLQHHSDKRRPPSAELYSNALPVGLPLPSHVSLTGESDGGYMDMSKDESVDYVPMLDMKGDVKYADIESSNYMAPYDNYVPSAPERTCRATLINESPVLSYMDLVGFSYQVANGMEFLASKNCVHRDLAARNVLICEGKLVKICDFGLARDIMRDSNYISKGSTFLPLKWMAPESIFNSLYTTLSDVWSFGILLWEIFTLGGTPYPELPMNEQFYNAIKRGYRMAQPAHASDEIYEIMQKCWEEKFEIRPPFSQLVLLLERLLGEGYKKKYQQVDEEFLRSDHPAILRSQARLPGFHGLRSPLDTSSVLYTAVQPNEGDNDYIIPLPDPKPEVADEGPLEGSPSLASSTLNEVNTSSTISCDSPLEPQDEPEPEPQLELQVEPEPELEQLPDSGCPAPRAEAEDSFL
# T11 sequence (Q08345 19-913): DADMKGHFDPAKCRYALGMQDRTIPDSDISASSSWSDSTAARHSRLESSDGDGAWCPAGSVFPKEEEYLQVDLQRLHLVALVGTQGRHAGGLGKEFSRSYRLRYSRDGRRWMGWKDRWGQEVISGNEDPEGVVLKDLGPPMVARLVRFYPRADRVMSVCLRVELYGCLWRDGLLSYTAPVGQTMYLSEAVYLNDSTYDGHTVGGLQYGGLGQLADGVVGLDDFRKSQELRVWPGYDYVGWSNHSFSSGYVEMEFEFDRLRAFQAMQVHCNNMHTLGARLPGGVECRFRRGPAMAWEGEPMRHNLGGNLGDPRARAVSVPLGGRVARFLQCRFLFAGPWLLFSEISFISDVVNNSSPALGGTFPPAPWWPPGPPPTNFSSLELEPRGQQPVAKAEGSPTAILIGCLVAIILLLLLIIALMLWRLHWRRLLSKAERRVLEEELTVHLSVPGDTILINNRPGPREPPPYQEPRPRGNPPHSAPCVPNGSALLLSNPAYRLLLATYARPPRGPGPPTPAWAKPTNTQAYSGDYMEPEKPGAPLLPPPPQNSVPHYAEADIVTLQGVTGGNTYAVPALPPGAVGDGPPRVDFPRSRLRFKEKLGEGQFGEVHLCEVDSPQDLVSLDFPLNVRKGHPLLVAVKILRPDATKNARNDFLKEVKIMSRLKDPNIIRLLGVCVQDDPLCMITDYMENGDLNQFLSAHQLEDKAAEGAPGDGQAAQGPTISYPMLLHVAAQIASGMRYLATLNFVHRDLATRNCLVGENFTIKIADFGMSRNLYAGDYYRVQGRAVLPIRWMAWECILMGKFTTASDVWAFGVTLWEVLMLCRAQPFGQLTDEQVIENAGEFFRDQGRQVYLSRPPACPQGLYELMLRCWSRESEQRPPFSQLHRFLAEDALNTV
# T1 sequence (P00533 25-1210 limits assumed): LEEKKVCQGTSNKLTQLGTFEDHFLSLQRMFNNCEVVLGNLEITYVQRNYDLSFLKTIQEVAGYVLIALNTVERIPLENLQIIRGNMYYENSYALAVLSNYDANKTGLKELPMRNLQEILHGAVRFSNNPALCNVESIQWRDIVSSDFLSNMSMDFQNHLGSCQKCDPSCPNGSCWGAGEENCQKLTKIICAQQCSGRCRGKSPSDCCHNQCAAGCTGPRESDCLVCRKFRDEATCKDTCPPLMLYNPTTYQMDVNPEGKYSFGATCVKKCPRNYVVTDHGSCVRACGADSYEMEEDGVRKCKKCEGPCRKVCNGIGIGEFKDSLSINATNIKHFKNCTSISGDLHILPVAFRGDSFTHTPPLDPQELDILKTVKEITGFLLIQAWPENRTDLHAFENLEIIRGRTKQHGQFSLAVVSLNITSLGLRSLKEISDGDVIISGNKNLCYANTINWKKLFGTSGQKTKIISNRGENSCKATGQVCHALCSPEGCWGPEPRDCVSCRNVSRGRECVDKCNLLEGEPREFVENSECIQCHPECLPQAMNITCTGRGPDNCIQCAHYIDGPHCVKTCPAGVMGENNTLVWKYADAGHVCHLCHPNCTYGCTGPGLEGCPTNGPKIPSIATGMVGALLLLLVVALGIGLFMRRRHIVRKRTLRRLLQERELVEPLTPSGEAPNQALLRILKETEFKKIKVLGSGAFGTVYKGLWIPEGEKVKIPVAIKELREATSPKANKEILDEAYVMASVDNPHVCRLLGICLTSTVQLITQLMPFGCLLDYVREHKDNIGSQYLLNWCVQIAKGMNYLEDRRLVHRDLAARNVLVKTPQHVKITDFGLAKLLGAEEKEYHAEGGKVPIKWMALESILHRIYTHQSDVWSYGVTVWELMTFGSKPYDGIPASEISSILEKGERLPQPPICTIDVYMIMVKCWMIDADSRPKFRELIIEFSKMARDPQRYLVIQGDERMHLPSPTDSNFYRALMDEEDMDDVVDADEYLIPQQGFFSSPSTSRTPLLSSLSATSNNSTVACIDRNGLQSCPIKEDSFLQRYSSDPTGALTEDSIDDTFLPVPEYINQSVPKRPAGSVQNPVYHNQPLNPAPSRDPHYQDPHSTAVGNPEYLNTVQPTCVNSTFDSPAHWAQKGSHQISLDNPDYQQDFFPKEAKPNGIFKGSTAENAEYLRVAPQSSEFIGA
# T12 sequence (P07948 whole entry): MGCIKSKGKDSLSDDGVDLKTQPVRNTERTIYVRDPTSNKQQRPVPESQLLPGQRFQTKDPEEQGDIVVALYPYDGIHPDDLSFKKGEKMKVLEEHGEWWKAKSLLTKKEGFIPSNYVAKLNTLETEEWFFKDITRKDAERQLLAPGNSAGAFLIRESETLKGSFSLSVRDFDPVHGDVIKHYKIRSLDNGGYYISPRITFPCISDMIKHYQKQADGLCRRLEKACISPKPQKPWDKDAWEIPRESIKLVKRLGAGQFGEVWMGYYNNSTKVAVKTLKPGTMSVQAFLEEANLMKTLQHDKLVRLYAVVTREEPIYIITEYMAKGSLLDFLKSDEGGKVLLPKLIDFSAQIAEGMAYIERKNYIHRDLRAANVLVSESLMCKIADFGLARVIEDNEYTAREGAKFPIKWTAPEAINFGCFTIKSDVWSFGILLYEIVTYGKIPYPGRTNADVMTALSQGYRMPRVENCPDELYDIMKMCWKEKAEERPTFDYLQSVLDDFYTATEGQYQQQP
smiles,measurement,setting,value
"Clc1cc(NCC2CC2)c2ncc(-c3ccc4[nH]ncc4c3)n2n1 [compound 2, 6-Chloro-N-(cyclopropylmethyl)-3-(1H-indazol-5-yl)imidazo[1,2-b]pyridazin-8-amine]",remaining binding at 1 µM,EGFR,71%
same,remaining binding at 1 µM,SRPK2,73%
same,remaining binding at 1 µM,PIK3CA(E545K),75%
same,remaining binding at 1 µM,MLCK,80%
same,remaining binding at 1 µM,PDGFRB,1.3%
same,remaining binding at 1 µM,HPK1,75%
same,remaining binding at 1 µM,PRKG1,84%
same,remaining binding at 1 µM,VEGFR2,79%
same,remaining binding at 1 µM,MARK1,86%
same,remaining binding at 1 µM,TLK1,96%
same,remaining binding at 1 µM,DDR1,22%
same,remaining binding at 1 µM,LYN,92%
O=C(CN1CCOCC1)N[C@H]1CC[C@H](Nc2cc(Cl)nn3c(-c4ccc5[nH]ncc5c4)cnc23)CC1 [compound 26],remaining binding at 1 µM,EGFR,80%
same,remaining binding at 1 µM,SRPK2,79%
same,remaining binding at 1 µM,PIK3CA(E545K),80%
same,remaining binding at 1 µM,MLCK,6.6%
same,inhibition at 1 µM,MLCK; [1],> 90%
same,remaining binding at 1 µM,PDGFRB,0.05%
same,inhibition at 1 µM,PDGFRB; [1],> 90%
same,remaining binding at 1 µM,HPK1,88%
same,remaining binding at 1 µM,PRKG1,32%
same,remaining binding at 1 µM,VEGFR2,35%
same,remaining binding at 1 µM,MARK1,94%
same,remaining binding at 1 µM,TLK1,87%
same,remaining binding at 1 µM,DDR1,100%
same,remaining binding at 1 µM,LYN,96%
"CN1CCC(CNc2cc(Cl)nn3c(-c4cc5nc(Nc6ccccc6)[nH]c5cc4F)cnc23)CC1 [compound 31, 6-Chloro-3-(6-fluoro-2-(phenylamino)-1H-benzo[d]imidazol-5-yl)-N-((1-methylpiperidin-4-yl)methyl)imidazo[1,2-b]pyridazin-8-amine]",remaining binding at 1 µM,EGFR,100%
same,remaining binding at 1 µM,SRPK2,93%
same,remaining binding at 1 µM,PIK3CA(E545K),68%
same,remaining binding at 1 µM,MLCK,89%
same,remaining binding at 1 µM,PDGFRB,56%
same,remaining binding at 1 µM,HPK1,97%
same,remaining binding at 1 µM,PRKG1,83%
same,remaining binding at 1 µM,VEGFR2,71%
same,remaining binding at 1 µM,MARK1,94%
same,remaining binding at 1 µM,TLK1,93%
same,remaining binding at 1 µM,DDR1,96%
same,remaining binding at 1 µM,LYN,95%
